Assay results from ChEMBL document CHEMBL1201862, “PubChem BioAssay data set” (2004).
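Interpolation was linear, between the two tested concentrations surrounding the appropriate level; five concentrations were tested over 48 hours in 96-well plates. GI50: concentration for 50% inhibition of growth.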 Calls of active or inactive are those of the source. Rule as the data show it: active = GI50 up to about 1.1 µM and inactive = higher.

Key:
Assay in all cases: NCI anticancer screen, dose series, 48 h
[1] = system: TK-10
[2] = system: KM12
[3] = system: SK-OV-3
[4] = system: HCC 2998
[5] = system: UACC-62
[6] = system: SF-539
[7] = system: U-251
[8] = system: CCRF-CEM
[9] = system: SF-268
[10] = system: RXF 393
[11] = system: NCI-H522
[12] = system: SK-MEL-28
[13] = system: M14
[14] = system: UACC-257
[15] = system: RPMI-8226
[16] = system: SN12C
[17] = system: SNB-75
[18] = system: OVCAR-5
[19] = system: MOLT-4
[20] = system: NCI/ADR-RES

Measured: GI50

CCOC(=O)C(=O)NC12CC3CC(CC(C3)C1)C2
inactive: [1] > 100 µM | [2] > 100 µM | [3] > 100 µM | [4] > 100 µM | [5] > 100 µM | [6] > 100 µM | [7] > 100 µM | [8] > 100 µM | [9] > 100 µM | [10] > 100 µM | [11] > 100 µM | [12] > 100 µM | [13] > 100 µM | [14] > 100 µM | [15] > 100 µM | [16] > 100 µM | [17] > 100 µM | [18] > 100 µM

Cc1ccc2c3c1[C@@H]1O[C@@H]1c1cccc(c1-3)[C@@H]1O[C@H]21
inactive: [1] 18.2 µM | [2] 12.4 µM | [3] 26.7 µM | [5] 20 µM | [19] 3.96 µM | [7] 11.9 µM | [9] 12.8 µM | [11] 12.2 µM | [20] 18.2 µM | [12] 10.2 µM | [13] 11 µM | [14] 15.9 µM | [16] 11.1 µM | [17] 2.38 µM | [18] 18.1 µM

O=C(OCc1ccccc1)OOC(=O)OCc1ccccc1
inactive: [2] > 100 µM | [3] > 100 µM | [4] > 100 µM | [5] > 100 µM | [19] > 100 µM | [6] > 100 µM | [7] > 100 µM | [8] > 100 µM | [9] > 100 µM | [10] > 100 µM | [11] > 100 µM | [12] > 100 µM | [13] > 100 µM | [14] > 100 µM | [15] > 100 µM | [16] > 100 µM | [17] 99.1 µM | [18] > 100 µM

COC(=O)C(Cc1ccc(N(C)C)cc1)(NC(=O)c1ccccc1)P(=O)(OC)OC (stereo not given)
inactive: [1] > 100 µM | [2] > 100 µM | [3] > 100 µM | [4] > 100 µM | [5] > 100 µM | [19] > 100 µM | [6] > 100 µM | [7] > 100 µM | [8] > 100 µM | [9] > 100 µM | [10] > 100 µM | [11] > 100 µM | [12] > 100 µM | [13] > 100 µM | [14] > 100 µM | [15] > 100 µM | [16] > 100 µM | [17] > 100 µM | [18] > 100 µM

N/N=C(\C(=O)Nc1c(Cl)cc([N+](=O)[O-])cc1Cl)C(c1cnc2ccc([N+](=O)[O-])cc2n1)[N+](=O)[O-] (stereo not given)
inactive: [1] > 100 µM | [2] 50.1 µM | [3] > 100 µM | [4] 82.2 µM | [5] 36.9 µM | [19] 47.6 µM | [6] > 100 µM | [7] > 100 µM | [8] 77.1 µM | [9] > 100 µM | [10] > 100 µM | [11] 9.98 µM | [12] > 100 µM | [14] > 100 µM | [15] 42.8 µM | [16] 95.7 µM | [17] 56.9 µM | [18] > 100 µM

COc1c2c(cc3c(CCc4ccccc4)cc(=O)oc13)CCC(C)(C)O2
inactive: [1] > 100 µM | [2] > 100 µM | [3] > 100 µM | [4] > 100 µM | [5] > 100 µM | [19] > 100 µM | [7] > 100 µM | [8] > 100 µM | [9] > 100 µM | [10] > 100 µM | [12] > 100 µM | [13] > 100 µM | [14] > 100 µM | [15] > 100 µM | [16] > 100 µM | [17] > 100 µM | [18] > 100 µM

COc1ccc(/C(Cl)=C(\C=O)c2ccc(F)cc2)cc1
inactive: [1] 33.1 µM | [3] 40 µM | [5] 9.08 µM | [19] 3.56 µM | [6] 15.5 µM | [7] 6.58 µM | [8] 3.14 µM | [9] 8.36 µM | [11] 4.06 µM | [12] 16.7 µM | [13] 12.9 µM | [15] 4.49 µM | [16] 9.98 µM | [17] 2.27 µM

C[Si](C)(C)/C(I)=C/CO
inactive: [1] 33.3 µM | [2] 23 µM | [3] 32.5 µM | [5] 20.4 µM | [19] 17 µM | [6] 20 µM | [7] 18.3 µM | [8] 22 µM | [9] 27.1 µM | [11] 16.1 µM | [12] 27.9 µM | [13] 35.2 µM | [14] 15.5 µM | [15] 17.4 µM | [16] 22 µM | [17] 53.6 µM | [18] 30.5 µM

O=C1C2C3C=C4c5ccccc5N(c5ccccc5)C4(C2C(=O)N1Cc1ccccc1)C1C(=O)N(Cc2ccccc2)C(=O)C31 (stereo not given)
inactive: [1] > 100 µM | [2] > 100 µM | [4] > 100 µM | [19] > 100 µM | [6] > 100 µM | [7] > 100 µM | [8] > 100 µM | [9] > 100 µM | [12] > 100 µM | [13] > 10 µM | [14] > 100 µM | [16] > 100 µM | [17] 16.1 µM | [18] > 100 µM

C[n+]1[se]c2ccccc2c1Cl
inactive: [1] > 43.4 µM | [2] > 40.2 µM | [3] > 89.3 µM | [4] > 47.8 µM | [5] 17.7 µM | [19] 13.5 µM | [6] 19.3 µM | [7] 30.9 µM | [8] 8.67 µM | [9] 20.9 µM | [10] 19.5 µM | [11] 20.3 µM | [12] 23.4 µM | [13] 13.7 µM | [14] 17.9 µM | [15] 33.1 µM | [16] 15.5 µM | [17] 17.6 µM | [18] > 52.1 µM

O=S1(=O)CC#CC[C@@H](CO)[C@@H](CO)CC#CC1
inactive: [1] > 100 µM | [2] > 100 µM | [3] > 100 µM | [4] > 100 µM | [5] > 100 µM | [19] 42.5 µM | [6] > 100 µM | [7] > 100 µM | [8] 22.5 µM | [10] > 100 µM | [11] 17.9 µM | [12] 72.3 µM | [13] 40.1 µM | [14] 91.6 µM | [16] > 100 µM | [17] 82 µM | [18] > 100 µM

COC(=O)C(/C(=N/NC(N)=S)C(=O)Nc1ccccc1[N+](=O)[O-])c1cnc2ccccc2n1 (stereo not given)
inactive: [1] > 100 µM | [2] > 100 µM | [3] > 100 µM | [4] > 100 µM | [5] > 100 µM | [19] 83 µM | [6] > 100 µM | [7] > 100 µM | [8] > 100 µM | [9] > 100 µM | [10] > 100 µM | [11] > 100 µM | [12] > 100 µM | [13] > 100 µM | [14] > 100 µM | [15] > 100 µM | [16] > 100 µM | [17] > 100 µM | [18] > 100 µM
